Measured values taken from PubChem BioAssay AID1963849 (Molecular Pharmacology Branch, DTP, NCI, 2024).

Test system: 299254-011-R-J1-PDC complex spheroid viability
Test: Anticancer human tumor 299254-011-R-J1-PDC patient-derived melanoma cell line growth inhibition [POLQ]
Conditions: for IC50: curve of first compound; for viability, T/C: stronger effect = lower value
Experimental: Multicellular complex tumor spheroid response to Polymerase (POL) inhibitors (novobiocin, ART-558, RP6685) in combination with a variety of drugs and investigational agents in selected tumor cell lines
The POL inhibitors (novobiocin, ART-558, and RP6685) were evaluated both individually and in combination with standard of care and investigational anticancer small molecules within a complex spheroid model of solid tumors. . Complex spheroids include a stromal component modeled by human endothelial cells (HUVEC) and fibroblasts modeled by human mesenchymal stem cells (MSCs). The concentration ranges selected for each drug and investigational agent were based upon clinically achievable concentrations if the clinical Cmax of the agent was known.
Compounds. The drugs and investigational agents: novobiocin (NSC847541), ART-558 (NSC835418), RP-6685 (NSC848927), peposertib (NSC802822), ceralasertib (NSC780249), elimusertib (NSC800525), camonsertib (NSC841442), AZD-1390 (NSC803789), olaparib (NSC753686), talazoparib (NSC767125), rucaparib (NSC756644), sotorasib (NSC818433), MRTX-1133 (NSC836407), SN-38 (NSC673596), topotecan (NSC609699), epotoside (NSC141540), doxorubicin (NSC123127), gemcitabine (NSC613327), 5-fluorouracil (NSC19893), paclitaxel (NSC125973), vemurafenib (NSC761431), MSA-2 (NSC828583), SN-011 (NSC837082), adavosertib (NSC754352), prexasertib (NSC758257), carboplatin (NSC241240) and oxaliplatin (NSC266046), were obtained from the National Cancer Institute (NCI) Developmental Therapeutics Program Chemical Repository (21). The FDA-approved anticancer drug set is available from the Developmental Therapeutics Program at https://dtp.cancer.gov/organization/dscb/obtaining/. […] The stock solutions were prepared in dimethyl sulfoxide (DMSO, Sigma-Aldrich, St. Louis, MO, cat. D2650), except for the platinum compounds which were prepared in saline (Quality Biological, Gaithersburg, MD, cat. 114-055-101), at 800-fold the tested concentration and stored at -70 degrees C prior to their use. All drugs and investigational agents were tested over a range starting from a high concentration at or near the clinical Cmax and decreasing in half-log increments. If the clinical Cmax for an agent had not been determined, the highest concentration tested was 10 microM, except for SN-38, which was tested at a high concentration of 1 microM.
Cell Culture. All cells were maintained in an incubator at 37 degrees C and 5% CO2 with 95% humidity. The PDC lines were cultured according to standard operating procedures established by the NCI PDMR (https://pdmr.cancer.gov). Table 3 of the manuscript, lists the cell lines along with the number of the three cell types plated to form the mct-spheroids and media for tumor cell growth. After thawing, all PDC lines, except 997537-175-T-J1-PDC and 415267-285-R-J2-PDC, were cultured in Matrigel-coated flasks prepared with a working solution of 1X Ham's F-12 nutrient mix, without supplementation (Thermo Fisher Scientific, cat. 11765054), 100 U/mL penicillin-streptomycin (Thermo Fisher Scientific, cat. 15140122), and 2.5% Matrigel (Corning Inc., Corning, NY, cat. 354248) for the first three passages. The two PDC lines 997537-175-T-J1-PDC and 415267-285-R-J2-PDC were cultured on uncoated flasks. The 857933-349-R-J2-PDC line was cultured in 6C/Colon 1B media containing advanced DMEM/F-12 (Thermo Fisher Scientific, cat. 12634028), 10 mM HEPES (Thermo Fisher Scientific, cat. 15630080), 1X GlutaMAX supplement (Thermo Fisher Scientific, cat. 35050061), 0.1 mg/mL primocin (InvivoGen, San Diego, CA, cat. ant-pm-2), 10% defined fetal bovine serum, heat inactivated (HyClone Laboratories Inc., Logan, UT, cat. SH30070.03HI), 50% L-WRN conditioned media (ATCC, cat. CRL-3276), 1.25 mM N-Acetyl-L-cysteine (Sigma-Aldrich, cat. A9165), 10 mM nicotinamide (Sigma-Aldrich, cat. N0636), 1X B-27 supplement (Thermo Fisher Scientific, cat. 17504044), 1X N-2 supplement (Thermo Fisher Scientific, cat. […]

[1] = second compound 0.0316 µM, first compound 0.0316 µM
[2] = second compound 0.0316 µM, first compound 0.1 µM
[3] = second compound 0.0316 µM, first compound 0.316 µM
[4] = second compound 0.0316 µM, first compound 1 µM
[5] = second compound 0.1 µM, first compound 0.0316 µM
[6] = second compound 0.1 µM, first compound 0.1 µM
[7] = second compound 0.1 µM, first compound 0.316 µM
[8] = second compound 0.1 µM, first compound 1 µM
[9] = second compound 0.316 µM, first compound 0.0316 µM
[10] = second compound 0.316 µM, first compound 0.1 µM
[11] = second compound 0.316 µM, first compound 0.316 µM
[12] = second compound 0.316 µM, first compound 1 µM
[13] = second compound 1 µM, first compound 0.0316 µM
[14] = second compound 1 µM, first compound 0.1 µM
[15] = second compound 1 µM, first compound 0.316 µM
[16] = second compound 1 µM, first compound 1 µM
[17] = second compound 3.16 µM, first compound 0.0316 µM
[18] = second compound 3.16 µM, first compound 0.1 µM
[19] = second compound 3.16 µM, first compound 0.316 µM
[20] = second compound 3.16 µM, first compound 1 µM
[21] = second compound 10 µM, first compound 0.0316 µM
[22] = second compound 10 µM, first compound 0.1 µM
[23] = second compound 10 µM, first compound 0.316 µM
[24] = second compound 10 µM, first compound 1 µM
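Also: spheroids exposed to drugs for one week before measurement.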
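For viability, T/C in this document: percent viability relative to DMSO vehicle control taken as 100%.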

COc1cccc(OCCCN)c1-c1cc(Nc2cnc(C#N)cn2)n[nH]1 + COC1C(OC(N)=O)C(O)C(Oc2ccc3c(O)c(NC(=O)c4ccc(O)c(CC=C(C)C)c4)c(=O)oc3c2C)OC1(C)C
IC50 (second compound 0.0316 µM): 65.1 nM | IC50 (second compound 0.1 µM): 119 nM | IC50 (second compound 0.316 µM): 111 nM | IC50 (second compound 1 µM): 206 nM | IC50 (second compound 3.16 µM): 84.5 nM | IC50 (second compound 10 µM): 126 nM | viability, T/C (second compound 0.0316 µM, first compound 0.00316 µM): 99.5% | viability, T/C (second compound 0.0316 µM, first compound 0.01 µM): 94.9% | viability, T/C [1]: 58.7% | viability, T/C [2]: 49.6% | viability, T/C [3]: 41.6% | viability, T/C [4]: 38.1% | viability, T/C (second compound 0.1 µM, first compound 0.00316 µM): 94.2% | viability, T/C (second compound 0.1 µM, first compound 0.01 µM): 98.6% | viability, T/C [5]: 72% | viability, T/C [6]: 53.9% | viability, T/C [7]: 41.1% | viability, T/C [8]: 38% | viability, T/C (second compound 0.316 µM, first compound 0.00316 µM): 105% | viability, T/C (second compound 0.316 µM, first compound 0.01 µM): 102% | viability, T/C [9]: 74.5% | viability, T/C [10]: 52.4% | viability, T/C [11]: 42.1% | viability, T/C [12]: 39.6% | viability, T/C (second compound 1 µM, first compound 0.00316 µM): 114% | viability, T/C (second compound 1 µM, first compound 0.01 µM): 89.2% | viability, T/C [13]: 74.2% | viability, T/C [14]: 56.8% | viability, T/C [15]: 43.8% | viability, T/C [16]: 39.9% | viability, T/C (second compound 3.16 µM, first compound 0.00316 µM): 99.5% | viability, T/C (second compound 3.16 µM, first compound 0.01 µM): 105% | viability, T/C [17]: 65.7% | viability, T/C [18]: 55.1% | viability, T/C [19]: 38.3% | viability, T/C [20]: 48.6% | viability, T/C (second compound 10 µM, first compound 0.00316 µM): 105% | viability, T/C (second compound 10 µM, first compound 0.01 µM): 104% | viability, T/C [21]: 67.7% | viability, T/C [22]: 56.9% | viability, T/C [23]: 49% | viability, T/C [24]: 40%

O=C(c1cc(Cc2n[nH]c(=O)c3ccccc23)ccc1F)N1CCN(C(=O)C2CC2)CC1 + COC1C(OC(N)=O)C(O)C(Oc2ccc3c(O)c(NC(=O)c4ccc(O)c(CC=C(C)C)c4)c(=O)oc3c2C)OC1(C)C
IC50 (second compound 0.0316 µM): > 10000 nM | IC50 (second compound 0.1 µM): > 10000 nM | IC50 (second compound 0.316 µM): > 10000 nM | IC50 (second compound 1 µM): > 10000 nM | IC50 (second compound 3.16 µM): > 10000 nM | IC50 (second compound 10 µM): > 10000 nM | viability, T/C [1]: 129% | viability, T/C [2]: 114% | viability, T/C [3]: 114% | viability, T/C [4]: 122% | viability, T/C (second compound 0.0316 µM, first compound 3.16 µM): 116% | viability, T/C (second compound 0.0316 µM, first compound 10 µM): 101% | viability, T/C [5]: 107% | viability, T/C [6]: 113% | viability, T/C [7]: 117% | viability, T/C [8]: 129% | viability, T/C (second compound 0.1 µM, first compound 3.16 µM): 131% | viability, T/C (second compound 0.1 µM, first compound 10 µM): 93.6% | viability, T/C [9]: 116% | viability, T/C [10]: 110% | viability, T/C [11]: 119% | viability, T/C [12]: 135% | viability, T/C (second compound 0.316 µM, first compound 3.16 µM): 106% | viability, T/C (second compound 0.316 µM, first compound 10 µM): 99.5% | viability, T/C [13]: 128% | viability, T/C [14]: 122% | viability, T/C [15]: 121% | viability, T/C [16]: 127% | viability, T/C (second compound 1 µM, first compound 3.16 µM): 134% | viability, T/C (second compound 1 µM, first compound 10 µM): 98.2% | viability, T/C [17]: 144% | viability, T/C [18]: 114% | viability, T/C [19]: 109% | viability, T/C [20]: 121% | viability, T/C (second compound 3.16 µM, first compound 3.16 µM): 117% | viability, T/C (second compound 3.16 µM, first compound 10 µM): 98.9% | viability, T/C [21]: 128% | viability, T/C [22]: 119% | viability, T/C [23]: 120% | viability, T/C [24]: 128% | viability, T/C (second compound 10 µM, first compound 3.16 µM): 108% | viability, T/C (second compound 10 µM, first compound 10 µM): 95.2%
